From PMC12362783 (Advanced Science, 2025)

How the values were obtained:
MDA‐MB‐231 = test: Cell growth inhibition, CellTiter‐Glo (CTG); format: cell-based; conditions: Homo sapiens, MDA-MB-231, 120 h, read-out: IC50 MDA‐MB‐231; CTG, 5 days, n = 3
Method: (§1) All cells were grown in a humidified incubator at 37 °C and 5% CO2.
(§2) […] […] Relative viability was calculated by normalizing the raw luminescence counts of the treated groups to those of the DMSO control groups. IC₅₀ values were calculated using sigmoidal dose‐response curve fitting with GraphPad Prism 9.0 software.

MDA‐MB‐468 = test: Cell growth inhibition, CellTiter‐Glo (CTG); format: cell-based; conditions: Homo sapiens, MDA-MB-468, 120 h; CTG, 5 days, n = 3
Method: as §1, §2

PARP1 = PARP1 (Homo sapiens, UniProt P09874); test: PARP enzymatic inhibition ELISA (PARP1); format: biochemical; conditions: for IC50: n = 3, mean ± SD
PARP1, sequence (P09874 whole entry): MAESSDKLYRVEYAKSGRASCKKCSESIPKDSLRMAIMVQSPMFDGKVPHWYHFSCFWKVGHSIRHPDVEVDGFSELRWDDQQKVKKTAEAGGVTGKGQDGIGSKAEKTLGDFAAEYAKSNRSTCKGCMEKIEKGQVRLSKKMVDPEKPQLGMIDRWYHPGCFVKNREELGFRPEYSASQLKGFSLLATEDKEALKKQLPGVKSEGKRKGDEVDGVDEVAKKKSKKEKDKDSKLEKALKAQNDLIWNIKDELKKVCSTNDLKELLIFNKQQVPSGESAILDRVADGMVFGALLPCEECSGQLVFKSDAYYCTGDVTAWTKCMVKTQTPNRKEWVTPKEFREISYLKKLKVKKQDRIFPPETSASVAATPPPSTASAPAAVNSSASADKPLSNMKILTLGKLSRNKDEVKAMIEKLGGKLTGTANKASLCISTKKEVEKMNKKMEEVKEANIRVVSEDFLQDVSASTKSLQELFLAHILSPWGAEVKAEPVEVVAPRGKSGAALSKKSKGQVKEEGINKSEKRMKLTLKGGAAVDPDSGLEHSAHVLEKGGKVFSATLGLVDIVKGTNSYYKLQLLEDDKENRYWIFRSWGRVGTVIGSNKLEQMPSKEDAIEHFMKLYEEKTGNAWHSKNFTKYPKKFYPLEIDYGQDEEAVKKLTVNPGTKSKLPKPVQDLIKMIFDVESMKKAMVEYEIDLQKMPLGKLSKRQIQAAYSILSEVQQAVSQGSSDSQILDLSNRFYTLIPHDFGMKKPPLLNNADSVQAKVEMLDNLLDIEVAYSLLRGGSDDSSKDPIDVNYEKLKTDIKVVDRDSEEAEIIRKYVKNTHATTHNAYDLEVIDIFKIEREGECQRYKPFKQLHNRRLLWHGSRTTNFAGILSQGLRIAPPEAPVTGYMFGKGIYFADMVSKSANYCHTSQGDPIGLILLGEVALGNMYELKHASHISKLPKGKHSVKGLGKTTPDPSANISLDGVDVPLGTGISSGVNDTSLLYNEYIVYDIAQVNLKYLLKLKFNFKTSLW
Method: The PARP activity assay was performed by ChemPartner (Shanghai, China). Each well was precoated with histone (final conc.: 100 ng mL^−1) diluted in PBS buffer (contains 10 mmol L^−1 NaH2PO4 and 150 mmol L^−1 NaCl, pH 7.4) by incubation at 4 °C overnight. […] The reaction was initiated by the addition of 10 µL of PARP (final conc.: 0.007 nM/well) at room temperature for 60 min. Add 20 µL of anti‐Poly/Mono‐ADP Ribose Rabbit mAb. Incubate for 1.5 h at room temperature and wash the plate three times using PBST buffer. […] Incubate for 1 h at room temperature and wash the plate three times using PBST buffer. Add 25 µL Femto‐ECL Substrate A and Femto‐ECL Substrate B (1:1) mix. Immediately read chemiluminescence on Envision (Revvity, USA).

ATR = biological target: T1, ATR (Homo sapiens, UniProt Q13535); test: ATR kinase inhibition, Mobility Shift Assay; format: biochemical; conditions: n = 3, mean ± SD
T1 construct: purchased Eurofins 14-953
T1 sequence (Q13535 whole entry): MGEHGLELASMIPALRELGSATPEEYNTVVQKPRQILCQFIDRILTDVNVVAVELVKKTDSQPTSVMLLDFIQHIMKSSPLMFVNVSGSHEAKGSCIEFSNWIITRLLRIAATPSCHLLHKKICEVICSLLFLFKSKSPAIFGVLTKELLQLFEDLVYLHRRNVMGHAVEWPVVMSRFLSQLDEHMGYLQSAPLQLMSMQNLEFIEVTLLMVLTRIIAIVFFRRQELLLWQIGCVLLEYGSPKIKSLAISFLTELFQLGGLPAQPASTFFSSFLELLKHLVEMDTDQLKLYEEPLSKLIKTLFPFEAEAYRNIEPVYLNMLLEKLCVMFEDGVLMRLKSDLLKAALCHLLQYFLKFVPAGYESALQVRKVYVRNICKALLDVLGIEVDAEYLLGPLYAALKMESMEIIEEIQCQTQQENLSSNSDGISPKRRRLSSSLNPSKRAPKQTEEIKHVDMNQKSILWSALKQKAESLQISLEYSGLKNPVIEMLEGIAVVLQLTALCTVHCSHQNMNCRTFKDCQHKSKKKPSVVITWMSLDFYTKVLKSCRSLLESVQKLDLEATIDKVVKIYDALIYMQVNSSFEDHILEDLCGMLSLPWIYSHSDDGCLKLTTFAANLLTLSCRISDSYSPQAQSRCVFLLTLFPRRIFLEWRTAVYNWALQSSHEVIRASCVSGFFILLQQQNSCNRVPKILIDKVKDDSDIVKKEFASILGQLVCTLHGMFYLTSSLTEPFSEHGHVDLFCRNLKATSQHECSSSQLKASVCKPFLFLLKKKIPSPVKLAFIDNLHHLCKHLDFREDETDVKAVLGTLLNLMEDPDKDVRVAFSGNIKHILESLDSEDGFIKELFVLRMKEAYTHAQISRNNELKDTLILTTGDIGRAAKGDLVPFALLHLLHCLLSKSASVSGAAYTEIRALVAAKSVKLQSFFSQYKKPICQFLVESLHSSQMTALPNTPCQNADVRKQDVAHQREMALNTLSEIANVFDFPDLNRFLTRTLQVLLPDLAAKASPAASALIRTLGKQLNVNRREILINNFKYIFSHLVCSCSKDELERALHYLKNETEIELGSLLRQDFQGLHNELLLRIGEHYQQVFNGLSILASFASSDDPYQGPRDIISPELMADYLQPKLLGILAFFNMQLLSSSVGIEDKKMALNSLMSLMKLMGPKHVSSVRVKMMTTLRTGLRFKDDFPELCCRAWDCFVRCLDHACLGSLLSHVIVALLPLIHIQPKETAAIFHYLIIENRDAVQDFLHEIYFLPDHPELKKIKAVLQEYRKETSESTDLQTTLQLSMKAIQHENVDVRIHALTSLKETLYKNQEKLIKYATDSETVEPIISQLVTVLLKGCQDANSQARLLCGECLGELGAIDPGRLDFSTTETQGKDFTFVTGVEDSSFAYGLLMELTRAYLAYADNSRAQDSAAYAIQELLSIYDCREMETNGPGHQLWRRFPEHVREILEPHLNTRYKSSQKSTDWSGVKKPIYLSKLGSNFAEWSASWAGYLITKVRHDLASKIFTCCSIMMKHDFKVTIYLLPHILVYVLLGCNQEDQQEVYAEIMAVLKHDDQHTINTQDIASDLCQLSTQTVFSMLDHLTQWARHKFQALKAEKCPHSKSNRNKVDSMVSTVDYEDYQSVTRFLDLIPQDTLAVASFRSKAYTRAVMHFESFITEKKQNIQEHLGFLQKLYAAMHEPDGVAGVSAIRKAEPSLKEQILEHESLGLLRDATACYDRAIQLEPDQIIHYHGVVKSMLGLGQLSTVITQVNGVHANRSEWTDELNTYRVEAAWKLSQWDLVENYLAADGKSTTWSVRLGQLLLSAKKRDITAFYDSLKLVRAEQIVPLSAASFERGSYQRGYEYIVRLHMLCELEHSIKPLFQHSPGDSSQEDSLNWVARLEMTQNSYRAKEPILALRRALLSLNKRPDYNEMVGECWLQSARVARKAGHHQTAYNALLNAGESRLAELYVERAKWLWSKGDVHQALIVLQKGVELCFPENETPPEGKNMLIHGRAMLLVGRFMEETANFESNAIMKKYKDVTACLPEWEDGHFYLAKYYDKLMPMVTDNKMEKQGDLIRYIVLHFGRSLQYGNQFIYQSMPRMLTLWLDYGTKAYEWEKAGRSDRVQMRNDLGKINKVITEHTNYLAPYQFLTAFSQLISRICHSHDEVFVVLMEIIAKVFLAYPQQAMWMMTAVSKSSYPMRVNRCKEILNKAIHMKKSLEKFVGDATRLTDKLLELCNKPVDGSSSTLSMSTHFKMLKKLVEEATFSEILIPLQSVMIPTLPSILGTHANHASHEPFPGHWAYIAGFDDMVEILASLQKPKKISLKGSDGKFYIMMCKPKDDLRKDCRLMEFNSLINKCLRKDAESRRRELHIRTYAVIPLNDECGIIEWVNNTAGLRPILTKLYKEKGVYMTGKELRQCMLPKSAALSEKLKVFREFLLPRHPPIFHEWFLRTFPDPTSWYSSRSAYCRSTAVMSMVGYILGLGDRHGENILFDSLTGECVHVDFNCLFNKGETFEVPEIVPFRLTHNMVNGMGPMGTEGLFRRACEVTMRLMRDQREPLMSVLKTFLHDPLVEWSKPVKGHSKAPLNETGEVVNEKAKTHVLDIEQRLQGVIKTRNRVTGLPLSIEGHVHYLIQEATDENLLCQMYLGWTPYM
T1 sequence (Q8WXE1 whole entry partner): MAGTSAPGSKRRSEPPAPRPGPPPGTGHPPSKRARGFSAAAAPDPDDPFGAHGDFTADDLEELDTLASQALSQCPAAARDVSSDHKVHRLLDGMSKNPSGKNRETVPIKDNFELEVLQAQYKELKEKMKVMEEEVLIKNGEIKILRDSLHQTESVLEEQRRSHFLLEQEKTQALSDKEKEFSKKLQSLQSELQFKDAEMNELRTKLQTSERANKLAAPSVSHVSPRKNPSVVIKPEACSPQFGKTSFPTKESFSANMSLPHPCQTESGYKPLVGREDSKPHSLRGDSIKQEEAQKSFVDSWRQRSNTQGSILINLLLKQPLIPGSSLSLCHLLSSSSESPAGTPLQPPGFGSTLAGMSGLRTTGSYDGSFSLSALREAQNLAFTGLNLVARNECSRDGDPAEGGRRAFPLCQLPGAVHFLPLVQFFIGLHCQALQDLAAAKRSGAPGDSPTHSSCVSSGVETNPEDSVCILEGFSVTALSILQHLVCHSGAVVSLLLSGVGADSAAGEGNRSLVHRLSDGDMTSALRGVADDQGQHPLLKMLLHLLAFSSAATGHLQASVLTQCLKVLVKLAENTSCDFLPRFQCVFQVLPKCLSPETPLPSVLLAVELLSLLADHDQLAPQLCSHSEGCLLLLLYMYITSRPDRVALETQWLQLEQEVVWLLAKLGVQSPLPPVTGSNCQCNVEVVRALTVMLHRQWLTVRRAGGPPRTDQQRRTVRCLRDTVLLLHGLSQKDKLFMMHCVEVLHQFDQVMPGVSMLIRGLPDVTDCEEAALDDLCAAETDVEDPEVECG
Method: The in vitro ATR kinase inhibitory activities were determined by ChemPartner Co., Ltd. (Shanghai, China) using the Mobility Shift Assay. The tested compound was dissolved with DMSO and diluted to 1000/3 × of the final desired highest inhibitor concentration in the reaction. […] The assay wells were incubated at 28 °C for 4 h.

IC50 (PARP1) | IC50 (ATR) | inhibition at 0.02 µM (PARP1; @ 20 nM, read-out: PARP1 inhibitory rate at certain concentration) | Compound | IC50 (MDA‐MB‐231) | IC50 (MDA‐MB‐468)
12 ± 2.8 nM | 118 ± 14 nM | – | C[C@@H]1COCCN1c1cc(C2(NC(=O)CNC(=O)c3cc(Cc4n[nH]c(=O)c5ccccc45)ccc3F)CC2)nc(-c2ccnc3[nH]ccc23)n1 [Compound A2, (R)‐2‐fluoro‐N‐(2‐((1‐(6‐(3‐methylmorpholino)‐2‐(1H‐pyrrolo [2,3‐b]pyridin‐4‐yl)pyrimidin‐4‐yl)cyclopropyl)amino)‐2‐oxoethyl)‐5‐((4‐oxo‐3,4‐dihydrophthalazin‐1‐yl)methyl)benzamide] | 28400 ± 1650 nM | > 50000 nM
– | > 500 nM | 31.8 ± 2.4% | C[C@@H]1COCCN1c1cc(C2(NC(=O)CCNC(=O)c3cc(Cc4n[nH]c(=O)c5ccccc45)ccc3F)CC2)nc(-c2ccnc3[nH]ccc23)n1 [Compound A3, (R)‐2‐fluoro‐N‐(3‐((1‐(6‐(3‐methylmorpholino)‐2‐(1H‐pyrrolo [2,3‐b]pyridin‐4‐yl)pyrimidin‐4‐yl)cyclopropyl)amino)‐3‐oxopropyl)‐5‐((4‐oxo‐3,4‐dihydrophthalazin‐1‐yl)methyl)benzamide] | > 50000 nM | 27300 ± 2340 nM
3.4 nM | > 500 nM | – | C[C@@H]1COCCN1c1cc(C2(NC(=O)CCCNC(=O)c3cc(Cc4n[nH]c(=O)c5ccccc45)ccc3F)CC2)nc(-c2ccnc3[nH]ccc23)n1 [Compound A4, (R)‐2‐fluoro‐N‐(4‐((1‐(6‐(3‐methylmorpholino)‐2‐(1H‐pyrrolo[2,3‐b]pyridin‐4‐yl)pyrimidin‐4‐yl)cyclopropyl)amino)‐4‐oxobutyl)‐5‐((4‐oxo‐3,4‐dihydrophthalazin‐1‐yl)methyl)benzamide] | > 50000 nM | 3080 ± 80 nM
0.75 ± 0.27 nM | 1320 ± 189 nM | – | C[C@@H]1COCCN1c1cc(C2(NS(=O)(=O)c3ccc(C(=O)N4CCN(C(=O)c5cc(Cc6n[nH]c(=O)c7ccccc67)ccc5F)CC4)cc3)CC2)nc(-c2ccnc3[nH]ccc23)n1 [Compound A8, (R)‐4‐(4‐(2‐fluoro‐5‐((4‐oxo‐3,4‐dihydrophthalazin‐1‐yl)methyl)benzoyl)piperazine‐1‐carbonyl)‐N‐(1‐(6‐(3‐methylmorpholino)‐2‐(1H‐pyrrolo[2,3‐b]pyridin‐4‐yl)pyrimidin‐4‐yl)cyclopropyl)benzenesulfonamide] | > 50000 nM | 620 ± 60 nM
0.6 ± 0.06 nM | 32 ± 9.3 nM | – | C[C@@H]1COCCN1c1cc(C2(NC(=O)c3ccc(C(=O)N4CCN(C(=O)c5cc(Cc6n[nH]c(=O)c7ccccc67)ccc5F)CC4)nc3)CC2)nc(-c2ccnc3[nH]ccc23)n1 [Compound A9, (R)‐6‐(4‐(2‐fluoro‐5‐((4‐oxo‐3,4‐dihydrophthalazin‐1‐yl)methyl)benzoyl)piperazine‐1‐carbonyl)‐N‐(1‐(6‐(3‐methylmorpholino)‐2‐(1H‐pyrrolo[2,3‐b]pyridin‐4‐yl)pyrimidin‐4‐yl)cyclopropyl)nicotinamide] | > 50000 nM | 750 ± 160 nM
19.3 ± 2.9 nM | 185 ± 16.3 nM | – | C[C@@H]1COCCN1c1cc(C2(NC(=O)c3ccc(CN4CCN(C(=O)c5cc(Cc6n[nH]c(=O)c7ccccc67)ccc5F)CC4)cc3)CC2)nc(-c2ccnc3[nH]ccc23)n1 [Compound A10, (R)‐4‐((4‐(2‐fluoro‐5‐((4‐oxo‐3,4‐dihydrophthalazin‐1‐yl)methyl)benzoyl)piperazin‐1‐yl)methyl)‐N‐(1‐(6‐(3‐methylmorpholino)‐2‐(1H‐pyrrolo[2,3‐b]pyridin‐4‐yl)pyrimidin‐4‐yl)cyclopropyl)benzamide] | > 50000 nM | > 50000 nM
2.3 ± 0.5 nM | 292 ± 13.9 nM | – | C[C@@H]1COCCN1c1cc(C2(NC(=O)c3ccc(N4CCN(C(=O)c5cc(Cc6n[nH]c(=O)c7ccccc67)ccc5F)CC4)cc3)CC2)nc(-c2ccnc3[nH]ccc23)n1 [Compound A11, (R)‐4‐(4‐(2‐fluoro‐5‐((4‐oxo‐3,4‐dihydrophthalazin‐1‐yl)methyl)benzoyl)piperazin‐1‐yl)‐N‐(1‐(6‐(3‐methylmorpholino)‐2‐(1H‐pyrrolo[2,3‐b]pyridin‐4‐yl)pyrimidin‐4‐yl)cyclopropyl)benzamide] | > 50000 nM | 570 ± 20 nM
